As usually defined, the IC50 is the concentration needed to halve the response being measured.

Some results are limits rather than exact numbers.

T1 sequence (P33032 whole entry): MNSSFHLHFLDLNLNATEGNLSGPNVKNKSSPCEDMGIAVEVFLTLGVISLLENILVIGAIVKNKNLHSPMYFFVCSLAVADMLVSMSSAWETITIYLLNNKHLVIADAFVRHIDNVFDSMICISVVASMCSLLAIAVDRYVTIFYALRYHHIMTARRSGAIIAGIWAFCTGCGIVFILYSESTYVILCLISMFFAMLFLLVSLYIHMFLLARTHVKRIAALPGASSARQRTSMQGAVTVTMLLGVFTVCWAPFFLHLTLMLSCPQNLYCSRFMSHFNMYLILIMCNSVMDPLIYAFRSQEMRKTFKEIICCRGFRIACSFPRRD

This assay addresses T1, human MC5R (hMC5R) (Homo sapiens, UniProt P33032).
T1 construct: purchased Perkin Elmer RBXMC5M400UA
The experiment in a line: Human MC5R radioligand binding assay ([125I] NDP-MSH displacement). The following applies: hMC5R membranes, [125I] NDP-MSH; tested as trifluoroacetate or hydrochloride salts or free bases; read-out: MC5R radioligand IC50. The procedure: Assessments of compound binding to human MC5R (hMC5R) by displacement of an ^125I-labeled NDP-MSH receptor ligand peptide were performed essentially as described in the data sheets produced by Perkin Elmer to accompany their frozen hMC5R membranes (Perkin Elmer catalog number RBXMC5M400UA).
Na^125I (0.5 mCi, 17.4 Ci/mg) was added to 50 μL sodium phosphate (50 mM, pH 7.4) in an eppendorf tube precoated with IODOGEN. After incubation for 10 mins the phosphate buffer containing the iodine was added to NDP-MSH (10 ul at 1 mg/mL) in a separate eppendorf tube. This was incubated for a further 10 mins. The iodinated NDP-MSH was purified by HPLC on a Zorbax SB 300 column using solvent A: 0.05% TFA and solvent B: 90% acetonitrile 0.045% TFA with a linear gradient, 0-67% B over 60 mins. The ^125I NDP-MSH eluted at 52 min after the unlabeled starting material (48 min) and was counted and stored in the freezer.
Incubation buffer: 25 mM HEPES-KOH (pH 7.0), 1.5 mM CaCl2, 1 mM MgSO4, 0.1 M NaCl, 1 mM 1,10-phenanthroline, and 1 Complete™ protease inhibitor tablet/100 mL (Roche, catalog number 1873580)
Perkin Elmer frozen hMC5 membranes: catalog number RBXMC5M400UA, 0.4 mL/vial; 400 microassays/vial. 0.78 mg/mL protein concentration
Vials of frozen membranes were thawed rapidly immediately before use, diluted with binding buffer and vortexed. Resuspended membranes were kept on ice until they were added to the wells of the plate.
Assays were performed in 96 well polypropylene plates. […] This was incubated for 1 hr at 37° C. […] Non-specific binding just under 5%.
Representative compounds of the present invention were tested for binding in the hMC5R assay as in Example 46, as listed in Table 3. The compounds were tested as their trifluoroacetate or hydrochloride salts, or as their free bases.
Take `Nc1ccccc1C[C@@H]1N[C@H](CNC(=O)/C=C/c2ccc(Cl)cc2)CCN(CC(c2ccccc2)c2ccccc2)C1=O` [Compound 68]: the concentration for half-maximal inhibition (IC50) is below 1 µM. On to `CCCC[C@@H]1N[C@H](CNC(=O)c2ccc3ccccc3c2)CCN(CC(c2ccccc2)c2ccccc2)C1=O` [Compound 49, N-(((3S,5S)-3-butyl-1-(2,2-diphenylethyl)-2-oxo-1,4-diazepan-5-yl)methyl)-2-naphthamide], for which the IC50 is below 1 µM. On to `CCCCCC[C@@H]1N[C@H](CNC(=O)c2ccc3cc(Cl)ccc3c2)CCN(C[C@@H](CC)c2ccccc2)C1=O` [Compound 75, 6-chloro-N-(((3S,5S)-3-hexyl-2-oxo-1-((S)-2-phenylbutyl)-1,4-diazepan-5-yl)methyl)-2-naphthamide], for which the IC50 is below 0.1 µM. On to `CC[C@H](CN1CC[C@@H](CNC(=O)c2ccc3cc(Cl)ccc3c2)N[C@@H](CCCCO)C1=O)c1ccccc1` [Compound 76, 6-chloro-N-(((3S,5S)-3-(4-hydroxybutyl)-2-oxo-1-((S)-2-phenylbutyl)-1,4-diazepan-5-yl)methyl)-2-naphthamide], for which the IC50 is below 0.1 µM. Consider `CC[C@H](CN1CC[C@@H](CNC(=O)c2ccc3cc(Cl)ccc3c2)N[C@@H](CCC2CCCCC2)C1=O)c1ccccc1` [Compound 74, 6-chloro-N-(((3S,5S)-3-(2-cyclohexylethyl)-2-oxo-1-((S)-2-phenylbutyl)-1,4-diazepan-5-yl)methyl)-2-naphthamide], for which the IC50 was below 10 µM. As for `O=C(/C=C/c1ccc(Cl)cc1)NC[C@@H]1CCN(CC(c2ccccc2)c2ccccc2)C(=O)[C@H](CC(=O)N2CCCCC2)N1` [Compound 65, (E)-3-(4-chlorophenyl)-N-(((3S,5S)-1-(2,2-diphenylethyl)-2-oxo-3-(2-oxo-2-(piperidin-1-yl)ethyl)-1,4-diazepan-5-yl)methyl)acrylamide], the figure is below 1 µM. Regarding `N=C(N)NOCC[C@@H]1N[C@H](CNC(=O)c2ccc3ccccc3c2)CCN(CC(c2ccccc2)c2ccccc2)C1=O` [Compound 46, N-(((3S,5S)-1-(2,2-diphenylethyl)-3-(2-(guanidinooxy)ethyl)-2-oxo-1,4-diazepan-5-yl)methyl)-2-naphthamide], the IC50 was below 1 µM.

For `O=C(/C=C/c1ccc(Cl)cc1)NC[C@@H]1CCN(CC(c2ccccc2)c2ccccc2)C(=O)[C@H](CC(=O)Nc2ccccn2)N1` [Compound 64, (E)-3-(4-chlorophenyl)-N-(((3S,5S)-1-(2,2-diphenylethyl)-2-oxo-3-(2-oxo-2-(pyridin-2-ylamino)ethyl)-1,4-diazepan-5-yl)methyl)acrylamide], the IC50 is below 1 µM.

With `Nc1ccccc1C[C@@H]1N[C@H](CNC(=O)c2ccc3ccccc3c2)CCN(CC(c2ccccc2)c2ccccc2)C1=O` [Compound 69, N-(((3S,5S)-3-(2-aminobenzyl)-1-(2,2-diphenylethyl)-2-oxo-1,4-diazepan-5-yl)methyl)-2-naphthamide], the IC50 was below 1 µM. As to `O=C(NC[C@@H]1CCN(CC(c2ccccc2)c2ccccc2)C(=O)[C@H](Cc2ccncc2)N1)c1ccc2ccccc2c1` [Compound 48, N-(((3S,5S)-1-(2,2-diphenylethyl)-2-oxo-3-(pyridin-4-ylmethyl)-1,4-diazepan-5-yl)methyl)-2-naphthamide], the half-maximal inhibitory concentration (IC50) is below 10 µM. As to `CC[C@H](CN1CC[C@@H](CNC(=O)c2ccc(Cl)c(Cl)c2)N[C@@H](CCO)C1=O)c1ccccc1` [Compound 80, 3,4-dichloro-N-(((3S,5S)-3-(2-hydroxyethyl)-2-oxo-1-((S)-2-phenylbutyl)-1,4-diazepan-5-yl)methyl)benzamide], the IC50 is below 10 µM. With `CC[C@H](CN1CC[C@@H](CNC(=O)c2ccc3cc(Cl)ccc3c2)N[C@@H](CC(C)C)C1=O)c1ccccc1` [Compound 79, 6-chloro-N-(((3S,5S)-3-isobutyl-2-oxo-1-((S)-2-phenylbutyl)-1,4-diazepan-5-yl)methyl)-2-naphthamide], the IC50 is below 10 µM.

(Values after patent publication US8440653B2, “3-substituted-1,4-diazepan-2-one melanocortin-5 receptor antagonists” (Mimetica Pty Ltd, priority 2008, dated 2013).)
